We go through one compound from ChEMBL document CHEMBL6078657, “Thiazolidinedione-based structure modification of ergosterol peroxide provides thiazolidinedione-conjugated derivatives as potent agents against breast cancer cells through a PI3K/AKT/mTOR pathway” (Bioorg Med Chem, 2025).

The test system of one data set is A549. The experiment in a line: Antiproliferative activity against human A549 cells assessed as cell viability measured after 48 hrs incubation by MTT assay. Format: functional, cell-based. The following applies: A549, 48 h.
The subject of data set [1] is MCF7. Briefly: Antiproliferative activity against human MCF7 cells assessed as cell viability measured after 48 hrs incubation by MTT assay. Conditions: MCF7, 48 h. Type of data set: functional, cell-based.
Data set [2] is described as follows: Antiproliferative activity against human MCF-10A cells assessed as cell viability measured after 48 hrs incubation by MTT assay. Format: toxicity, cell-based.
Data set [3] can be described thus: Selectivity index, ratio of IC50 for human MCF-10A cells to IC50 for human MCF7 cells. The following applies: MCF-10A cells and MCF7 cells, read-out: Selectivity Index. Format: toxicity.
Data set [4] relates to MCF7. The experiment in a line: Induction of apoptosis in human MCF7 cells assessed as necrotic cells at 6 uM measured after 48 hrs incubation by Annexin V-FITC/PI double staining assay (reference value: 0.77%). Format: functional.
The subject of data set [5] is MCF7. Briefly: Induction of apoptosis in human MCF7 cells assessed as early apoptotic cells at 1 uM measured after 48 hrs incubation by Annexin V-FITC/PI double staining assay (reference value: 5.73%). Format: functional.
The subject of data set [6] is MCF7. The experiment in a line: Induction of apoptosis in human MCF7 cells assessed as decrease in mitochondrial membrane potential by measuring increase in JC-1 monomer (green fluorescence) at 6 uM incubated for 48 hrs by JC-1 staining based flow cytometry analysis (reference value: 2.96%). Format: functional. Further details: scale not given: the % may be the effect or the level left.

Data set [7] has as its system MCF7. Briefly: Induction of cell cycle arrest in human MCF7 cells assessed as accumulation of cells at G2/M phase at 1 uM measured after 48 hrs by PI staining based flow cytometry analysis (reference value: 16.91%). Format: functional.
Another data set deals with 4T1. The experiment in a line: In vivo antitumor activity against mouse 4T1 cells transfected in BALB/c mouse assessed as tumor growth inhibition at 15 mg/kg, ip daily for 14 consecutive days relative to control. Format: functional. Conditions: 4T1, 336 h, time 14 day, read-out: TGI.
Data set [8] in a line: Toxicity in healthy BALB/c mouse assessed as pathological changes in spleen at 20 mg/kg, ip daily for 14 consecutive days by HE staining based assay. The following applies: in vivo, 336 h, time 14 day. Type of data set: organism-based.
A short description of data set [9]: Toxicity in healthy BALB/c mouse assessed as pathological changes in heart at 40 mg/kg, ip daily for 14 consecutive days by HE staining based assay. The following applies: in vivo, 336 h, time 14 day. Type of data set: organism-based.
A short description of data set [10]: Toxicity in healthy BALB/c mouse assessed as pathological changes in lungs at 40 mg/kg, ip daily for 14 consecutive days by HE staining based assay. Format: organism-based. The following applies: in vivo, 336 h, time 14 day.
Data set [11] is described as follows: Toxicity in healthy BALB/c mouse assessed as pathological changes in kidney at 40 mg/kg, ip daily for 14 consecutive days by HE staining based assay. Format: organism-based. Conditions: in vivo.

With `CC(C)[C@@H](C)/C=C/[C@@H](C)[C@H]1CC[C@@H]2[C@]1(C)CC[C@H]1[C@]23C=C[C@]2(C[C@@H](OC(=O)NCCNC(=O)CN4C(=O)S/C(=C\c5cccc6ccccc56)C4=O)CC[C@]12C)OO3`, the half-maximal inhibitory concentration (IC50) with A549 amounted to 4.76 µM; in the data set on MCF7 [1] it was 3.06 µM. Further, the IC50 at 48 h in data set [2] was found to be 32.3 µM. The selectivity ratio in data set [3] stood at 10.6. Further, the Activity is reported as 0.72% in the data set on MCF7 [4]; 13.7% in the data set on MCF7 [5]; 49.5% with MCF7 [6]; 18.98% in the data set with MCF7 [7]; “Non-toxic” in data set [8]; “Non-toxic” in data set [9]. Moreover, the Activity result in data set [10] and in [11] was “Non-toxic” each time. For the same compound, the inhibition in vivo at 15 mg/kg in the data set with 4T1 worked out at 33.5%.
